Measured values: US6355799B1, “Substituted benzene compounds, process for their preparation, and herbicidal and defoliant compositions containing them” (ISK Americas Incorporated, priority 1997, dated 2002)

Assays:
Format in all cases: in vivo
[1] = test system: common ragweed (Ambrosia artemisizfolia L., AMBEL); assay: Pre-emerge test, greenhouse herbicide activity screening; details: rating scale 0-100, 14 days after application
Procedure, shortened: (§1)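 Plants grown in 10 cm pots of sandy loam mix received acetone-dissolved compounds through a moving flat-fan nozzle. Doses ranged from 15 to 1000 g ai/ha. Pre-emerge pots were seeded one day earlier, post-emerge pots 8–21 days earlier. Fourteen days on, each pot was graded 0–100 for damage.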

[2] = test system: ivyleaf morningglory (Ipomoea hederacea, IPOHE); assay: as above; details: rating scale 0-100, 14 days after application
Procedure, shortened: as §1

[3] = test system: lambsquarters (Chenopodium album, CHEAL); assay: as above; details: rating scale 0-100, 14 days after application
Procedure, shortened: as §1

[4] = test system: velvetleaf (Abutilon theophrasti, ABUTH); assay: as above; details: rating scale 0-100, 14 days after application
Procedure, shortened: as §1

[5] = test system: barnyardgrass (Echinochloa crus-galli, ECHCG); assay: as above; details: rating scale 0-100, 14 days after application
Procedure, shortened: as §1

[6] = test system: green foxtail (Setaria viridis, SETVI); assay: as above; details: rating scale 0-100, 14 days after application
Procedure, shortened: as §1

[7] = test system: sicklepod (Cassia obtusifolia, CASOB); assay: as above; details: rating scale 0-100, 14 days after application
Procedure, shortened: as §1

[8] = test system: johnsongrass (Sorghum halepense, SORHA); assay: as above; details: rating scale 0-100, 14 days after application
Procedure, shortened: as §1

[9] = test system: large crabgrass (Digitaria sanguinalis, DIGSA); assay: as above; details: rating scale 0-100, 14 days after application
Procedure, shortened: as §1

[10] = test system: redroot pigweed (Amaranthus retroflexus, AMARE); assay: as above; details: rating scale 0-100, 14 days after application
Procedure, shortened: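 Sandy loam pots; pre-emerge: sown 1 d pre-spray, surface-watered after, then bottom-watered. Post-emerge: sown 8–21 d before, 2–3 leaf stage, + 0.25% v/v NIS, bottom-watered. Acetone, 187 l/ha track spray, 15–1000 g ai/ha. 0–100 injury score, day 14.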

[11] = test system: common ragweed (Ambrosia artemisizfolia L., AMBEL); assay: Post-emerge test, greenhouse herbicide activity screening; details: rating scale 0-100 (0 no damage, 100 complete death), 14 days after application
Procedure, shortened: (§2)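 Rating: 0–100 visual injury, 14 DAA. Application: acetone, 187 l/ha, 15–1000 g ai/ha, flat-fan track sprayer with nozzle 40–45 cm above soil or canopy. Post-emerge runs used 0.25% v/v surfactant on 2–3 leaf plants.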

[12] = test system: ivyleaf morningglory (Ipomoea hederacea, IPOHE); assay: as above; details: rating scale 0-100 (0 no damage, 100 complete death), 14 days after application
Procedure, shortened: as §2

[13] = test system: lambsquarters (Chenopodium album, CHEAL); assay: as above; details: rating scale 0-100 (0 no damage, 100 complete death), 14 days after application
Procedure, shortened: as §2

[14] = test system: velvetleaf (Abutilon theophrasti, ABUTH); assay: as above; details: rating scale 0-100 (0 no damage, 100 complete death), 14 days after application
Procedure, shortened: as §2

[15] = test system: barnyardgrass (Echinochloa crus-galli, ECHCG); assay: as above; details: rating scale 0-100 (0 no damage, 100 complete death), 14 days after application
Procedure, shortened: as §2

[16] = test system: redroot pigweed (Amaranthus retroflexus, AMARE); assay: as above; details: rating scale 0-100 (0 no damage, 100 complete death), 14 days after application
Procedure, shortened: as §2

[17] = test system: green foxtail (Setaria viridis, SETVI); assay: as above; details: rating scale 0-100 (0 no damage, 100 complete death), 14 days after application
Procedure, shortened: as §2

[18] = test system: sicklepod (Cassia obtusifolia, CASOB); assay: as above; details: rating scale 0-100 (0 no damage, 100 complete death), 14 days after application
Procedure, shortened: as §2

[19] = test system: johnsongrass (Sorghum halepense, SORHA); assay: as above; details: rating scale 0-100 (0 no damage, 100 complete death), 14 days after application
Procedure, shortened: as §2

[20] = test system: large crabgrass (Digitaria sanguinalis, DIGSA); assay: as above; details: rating scale 0-100 (0 no damage, 100 complete death), 14 days after application
Procedure, shortened: as §2

[21] = test system: upland rice (Oryza sp., var. Tebonnet, RICE); assay: Post-emerge test, crop safety; details: rating scale 0-100 (0 no damage, 100 complete death), 14 days after application
Procedure, shortened: (§3)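 Each test used a mechanized track sprayer delivering 187 l/ha of acetone solution at 15–1000 g ai/ha. Post-emerge foliage at 2–3 leaves was treated with added 0.25% v/v non-ionic surfactant and bottom-watered only. Injury was assessed on day 14, where 100 means total kill.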

[22] = test system: field corn (Zea mays L., var. Dekalb 535, CORN); assay: Post-emerge test, crop safety; details: rating scale 0-100 (0 no damage, 100 complete death), 14 days after application
Procedure, shortened: as §3

[23] = test system: upland rice (Oryza sp., var. Tebonnet, RICE); assay: Pre-emerge test, crop safety; details: rating scale 0-100, 14 days after application
Procedure, shortened: (§4)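 Herbicidal damage is scored 0 (none) to 100 (complete plant death) two weeks after a simulated field spray. Rates span 15–1000 g ai/ha, delivered in acetone at 187 l/ha. For post-emergence treatments, plants have 2–3 leaves and the spray carries 0.25% v/v non-ionic surfactant.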

[24] = test system: field corn (Zea mays L., var. Dekalb 535, CORN); assay: Pre-emerge test, crop safety; details: rating scale 0-100, 14 days after application
Procedure, shortened: as §4

In the case of `COc1c(Cl)cc(F)c(-n2c(=O)cc(C(F)(F)F)n(C)c2=O)c1CC(Cl)C(=O)OCC(F)(F)F` (stereo not drawn) [14-21], the “Pre-emerge herbicidal activity, phytotoxicity rating AMBEL” value ([1]; 63 g ai/ha) is reported as 0, the “Pre-emerge herbicidal activity, phytotoxicity rating AMBEL” value ([1]; 250 g ai/ha) is reported as 40 and the “Pre-emerge herbicidal activity, phytotoxicity rating IPOHE” value ([2]; 63 g ai/ha) is reported as 0. For the same compound, the “Pre-emerge herbicidal activity, phytotoxicity rating IPOHE” value ([2]; 250 g ai/ha) was 0, the “Pre-emerge herbicidal activity, phytotoxicity rating CHEAL” value ([3]; 63 g ai/ha) was 20 and the “Pre-emerge herbicidal activity, phytotoxicity rating CHEAL” value ([3]; 250 g ai/ha) was 75. The “Pre-emerge herbicidal activity, phytotoxicity rating ABUTH” value ([4]; 63 g ai/ha) was 40, the “Pre-emerge herbicidal activity, phytotoxicity rating ABUTH” value ([4]; 250 g ai/ha) was 100 and the “Pre-emerge herbicidal activity, phytotoxicity rating ECHCG” value ([5]; 63 g ai/ha) was 0. For the same compound, the “Pre-emerge herbicidal activity, phytotoxicity rating ECHCG” value ([5]; 250 g ai/ha) was 20, the “Pre-emerge herbicidal activity, phytotoxicity rating SETVI” value ([6]; 63 g ai/ha) was 0 and the “Pre-emerge herbicidal activity, phytotoxicity rating SETVI” value ([6]; 250 g ai/ha) was 0. The “Pre-emerge herbicidal activity, phytotoxicity rating CASOB” value ([7]; 63 g ai/ha) was 0, the “Pre-emerge herbicidal activity, phytotoxicity rating CASOB” value ([7]; 250 g ai/ha) was 10 and the “Pre-emerge herbicidal activity, phytotoxicity rating SORHA” value ([8]; 63 g ai/ha) was 0. The “Pre-emerge herbicidal activity, phytotoxicity rating SORHA” value ([8]; 250 g ai/ha) was 35, the “Pre-emerge herbicidal activity, phytotoxicity rating DIGSA” value ([9]; 63 g ai/ha) was 0 and the “Pre-emerge herbicidal activity, phytotoxicity rating DIGSA” value ([9]; 250 g ai/ha) was 70. For the same compound, the “Pre-emerge herbicidal activity, phytotoxicity rating AMARE” value ([10]; 63 g ai/ha) was 60, the “Pre-emerge herbicidal activity, phytotoxicity rating AMARE” value ([10]; 250 g ai/ha) was 95 and the “Post-emerge Herbicidal Activity, phytotoxicity rating AMBEL” value ([11]; Rate 63 g ai/ha) was 50. The “Post-emerge Herbicidal Activity, phytotoxicity rating AMBEL” value ([11]; Rate 250 g ai/ha) was 95, the “Post-emerge Herbicidal Activity, phytotoxicity rating IPOHE” value ([12]; Rate 63 g ai/ha) was 40 and the “Post-emerge Herbicidal Activity, phytotoxicity rating IPOHE” value ([12]; Rate 250 g ai/ha) was 50. The “Post-emerge Herbicidal Activity, phytotoxicity rating CHEAL” value ([13]; Rate 63 g ai/ha) was 70, the “Post-emerge Herbicidal Activity, phytotoxicity rating CHEAL” value ([13]; Rate 250 g ai/ha) was 95 and the “Post-emerge Herbicidal Activity, phytotoxicity rating ABUTH” value ([14]; Rate 63 g ai/ha) was 100. For the same compound, the “Post-emerge Herbicidal Activity, phytotoxicity rating ABUTH” value ([14]; Rate 250 g ai/ha) was 95, the “Post-emerge Herbicidal Activity, phytotoxicity rating ECHCG” value ([15]; Rate 63 g ai/ha) was 99 and the “Post-emerge Herbicidal Activity, phytotoxicity rating ECHCG” value ([15]; Rate 250 g ai/ha) was 100. The “Post-emerge Herbicidal Activity, phytotoxicity rating AMARE” value ([16]; Rate 63 g ai/ha) was 90, the “Post-emerge Herbicidal Activity, phytotoxicity rating AMARE” value ([16]; Rate 250 g ai/ha) was 100 and the “Post-emerge Herbicidal Activity, phytotoxicity rating SETVI” value ([17]; Rate 63 g ai/ha) was 10. For the same compound, the “Post-emerge Herbicidal Activity, phytotoxicity rating SETVI” value ([17]; Rate 250 g ai/ha) was 40, the “Post-emerge Herbicidal Activity, phytotoxicity rating CASOB” value ([18]; Rate 63 g ai/ha) was 30 and the “Post-emerge Herbicidal Activity, phytotoxicity rating CASOB” value ([18]; Rate 250 g ai/ha) was 60. For the same compound, the “Post-emerge Herbicidal Activity, phytotoxicity rating SORHA” value ([19]; Rate 63 g ai/ha) was 10, the “Post-emerge Herbicidal Activity, phytotoxicity rating SORHA” value ([19]; Rate 250 g ai/ha) was 70 and the “Post-emerge Herbicidal Activity, phytotoxicity rating DIGSA” value ([20]; Rate 63 g ai/ha) was 70. The “Post-emerge Herbicidal Activity, phytotoxicity rating DIGSA” value ([20]; Rate 250 g ai/ha) was 98, the “Post-emerge phytotoxicity rating RICE (crop damage)” value ([21]; Rate 63 g ai/ha) was 10 and the “Post-emerge phytotoxicity rating RICE (crop damage)” value ([21]; Rate 250 g ai/ha) was 45. For the same compound, the “Post-emerge phytotoxicity rating CORN (crop damage)” value ([22]; Rate 63 g ai/ha) was 50, the “Post-emerge phytotoxicity rating CORN (crop damage)” value ([22]; Rate 250 g ai/ha) was 100 and the “Pre-emerge phytotoxicity rating, crop damage RICE” value ([23]; 63 g ai/ha) was 0. The “Pre-emerge phytotoxicity rating, crop damage RICE” value ([23]; 250 g ai/ha) was 20, the “Pre-emerge phytotoxicity rating, crop damage CORN” value ([24]; 63 g ai/ha) was 0 and the “Pre-emerge phytotoxicity rating, crop damage CORN” value ([24]; 250 g ai/ha) was 70.
